# Data taken from patent US20150376172A1, “FLUORO-[1,3]OXAZINES AS BACE1 INHIBITORS” (HOFFMANN-LA ROCHE INC., priority 2013, published 2015).
# Counter-ions that a name gives are not always drawn.
# Target: T1, BACE1 (Homo sapiens, UniProt P56817)
# T1 construct: endogenous in cells; host or cells: HEK293 APP cells
# Assay: Cellular Aβ-lowering assay (Abeta 40 AlphaLISA)
# Format: cell-based
# Conditions: HEK293 APP cells; 18-20 hrs incubation; Aβ 40 in culture supernatants by AlphaLISA; read-out: BACE1 cell act. Aβ40 IC50
# Procedure: Cellular Aβ-lowering assay:
# The Abeta 40 AlphaLISA Assay can be used. The HEK293 APP cells were seeded in 96 well Microtiter plates in cell culture medium (Iscove's, plus 10% (v/v) fetal bovine serum, penicillin/streptomycin) to about 80% confluency and the compounds were added at a 3× concentration in ⅓ volume of culture medium (final DMSO concentration was kept at 1% v/v). After 18-20 hrs incubation at 37° C. and 5% CO2 in a humidified incubator, the culture supernatants were harvested for the determination of Aβ 40 concentrations using Perkin-Elmer Human Amyloid beta 1-40 (high specificity) Kit (Cat#AL275C).
# In a Perkin-Elmer White Optiplate-384 (Cat#6007290), 2 ul culture supernatants were combined with 2 μl of a 10× AlphaLISA Anti-hAβAcceptor beads+Biotinylated Antibody Anti-Aβ1-40 Mix (50 μg/mL/5 nM). After 1 hour room temperature incubation, 16 μl of a 1.25× preparation of Streptavidin (SA) Donor beads (25 μg/mL) were added and incubated for 30 minutes in the Dark. Light Emission at 615 nm was then recorded using EnVision-Alpha Reader. Levels of Aβ 40 in the culture supernatants were calculated as percentage of maximum signal (cells treated with 1% DMSO without inhibitor). The IC50 values were calculated using the Excel XLfit software.
# T1 sequence (P56817 46-501): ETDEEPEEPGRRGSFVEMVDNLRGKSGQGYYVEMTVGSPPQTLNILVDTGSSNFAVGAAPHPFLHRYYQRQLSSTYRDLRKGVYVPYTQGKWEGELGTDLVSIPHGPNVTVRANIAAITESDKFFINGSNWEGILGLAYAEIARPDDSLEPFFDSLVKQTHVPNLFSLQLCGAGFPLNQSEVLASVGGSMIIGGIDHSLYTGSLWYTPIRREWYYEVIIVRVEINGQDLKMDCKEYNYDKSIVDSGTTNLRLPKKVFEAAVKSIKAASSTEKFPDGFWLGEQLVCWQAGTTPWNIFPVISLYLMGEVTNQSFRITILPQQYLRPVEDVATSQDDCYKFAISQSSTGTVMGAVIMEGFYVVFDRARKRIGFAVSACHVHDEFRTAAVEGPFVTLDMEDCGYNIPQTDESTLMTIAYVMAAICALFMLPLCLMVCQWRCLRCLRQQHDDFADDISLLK
row,IC50 [nM],Compound
1,530,"C[C@@]1(c2cc(-c3nc4ccc(Cl)cc4o3)ccc2F)C[C@@H](C(F)(F)F)OC(N)=N1 [Example 39, (4S,6S)-4-(5-(6-Chlorobenzo[d]oxazol-2-yl)-2-fluorophenyl)-4-methyl-6-(trifluoromethyl)-5,6-dihydro-4H-1,3-oxazin-2-amine]"
2,140,"C[C@@]1(c2cccc(NC(=O)c3ccc(C#N)cn3)c2F)C[C@@H](C(F)(F)F)OC(N)=N1 [Example 37, N-(3-((4S,6S)-2-Amino-4-methyl-6-(trifluoromethyl)-5,6-dihydro-4H-1,3-oxazin-4-yl)-2-fluorophenyl)-5-cyanopicolinamide]"
3,650,"N#Cc1ccc(C#Cc2ccc(F)c([C@]3(CF)C[C@@H](C(F)(F)F)OC(N)=N3)c2)cc1 [Example 60, 4-((3-((4S,6S)-2-Amino-4-(fluoromethyl)-6-(trifluoromethyl)-5,6-dihydro-4H-1,3-oxazin-4-yl)-4-fluorophenyl)ethynyl)benzonitrile]"
4,25700,"CCn1cc(C#Cc2ccc(F)c([C@]3(CF)C[C@@H](C(F)(F)F)OC(N)=N3)c2)cn1 [Example 58, (4S,6S)-4-(5-((1-Ethyl-1H-pyrazol-4-yl)ethynyl)-2-fluorophenyl)-4-(fluoromethyl)-6-(trifluoromethyl)-5,6-dihydro-4H-1,3-oxazin-2-amine]"
5,33,"C[C@@]1(c2cc(NC3CCc4cc(C#N)cnc43)ccc2F)C[C@@H](C(F)(F)F)OC(N)=N1 (stereo partly drawn) [Example 36, 7-(3-((4S,6S)-2-Amino-4-methyl-6-(trifluoromethyl)-5,6-dihydro-4H-1,3-oxazin-4-yl)-4-fluorophenylamino)-6,7-dihydro-5H-cyclopenta[b]pyridine-3-carbonitrile]"
6,200,"C[C@@]1(c2cc(C#Cc3ccc(C#N)cc3)ccc2F)C[C@@H](C(F)(F)F)OC(N)=N1 [Example 66, 4-((3-((4S,6S)-2-Amino-4-methyl-6-(trifluoromethyl)-5,6-dihydro-4H-1,3-oxazin-4-yl)-4-fluorophenyl)ethynyl)benzonitrile]"
7,330,"C[C@@]1(c2cc(-c3cccc(C(F)(F)F)c3)cs2)C[C@@H](C(F)(F)F)OC(N)=N1 [Example 28, (4S,6S)-4-Methyl-6-(trifluoromethyl)-4-(4-(3-(trifluoromethyl)phenyl)thiophen-2-yl)-5,6-dihydro-4H-1,3-oxazin-2-amine]"
8,2,"CC#CCOc1cnc(C(=O)Nc2ccc(F)c([C@@]3(C)N=C(N)O[C@H](C(F)(F)F)[C@@H]3F)c2)cn1 [Example 7, N-(3-((4R,5R,6S)-2-Amino-5-fluoro-4-methyl-6-(trifluoromethyl)-5,6-dihydro-4H-1,3-oxazin-4-yl)-4-fluorophenyl)-5-(but-2-ynyloxy)pyrazine-2-carboxamide]"
9,1300,"Cc1cc(F)c([C@]2(C)C[C@@H](C(F)(F)F)OC(N)=N2)cc1-c1cnccc1F [Example 73, (4S,6S)-4-(2-Fluoro-5-(4-fluoropyridin-3-yl)-4-methylphenyl)-4-methyl-6-(trifluoromethyl)-5,6-dihydro-4H-1,3-oxazin-2-amine]"
10,1650,"C[C@@]1(c2cc(C#Cc3cncc(C#N)c3)ccc2F)C[C@@H](C(F)(F)F)OC(N)=N1 [Example 56, 5-[2-[3-[(4S,6S)-2-amino-4-methyl-6-(trifluoromethyl)-5,6-dihydro-1,3-oxazin-4-yl]-4-fluorophenyl]ethynyl]pyridine-3-carbonitrile]"
11,1100,"C[C@@]1(c2cc(-c3cnn(C(F)F)c3)ccc2F)C[C@@H](C(F)(F)F)OC(N)=N1 [Example 16, (4S,6S)-4-(5-(1-(Difluoromethyl)-1H-pyrazol-4-yl)-2-fluorophenyl)-4-methyl-6-(trifluoromethyl)-5,6-dihydro-4H-1,3-oxazin-2-amine]"
12,740,"C[C@@]1(c2sc(-c3cncc(Cl)c3)cc2Cl)C[C@@H](C(F)(F)F)OC(N)=N1 [Example 32, (4S,6S)-4-(3-Chloro-5-(5-chloropyridin-3-yl)thiophen-2-yl)-4-methyl-6-(trifluoromethyl)-5,6-dihydro-4H-1,3-oxazin-2-amine]"
13,3490,"NC1=N[C@](CF)(c2cc(C#Cc3cncc(Cl)c3)ccc2F)C[C@@H](C(F)(F)F)O1 [Example 61, (4S,6S)-4-(5-((5-Chloropyridin-3-yl)ethynyl)-2-fluorophenyl)-4-(fluoromethyl)-6-(trifluoromethyl)-5,6-dihydro-4H-1,3-oxazin-2-amine]"
14,440,"C[C@]1(F)[C@H](C(F)(F)F)OC(N)=N[C@]1(C)c1cc(NC(=O)c2ccc(C#N)cn2)ccc1F [Example 9, N-(3-((4R,5R,6R)-2-Amino-5-fluoro-4,5-dimethyl-6-(trifluoromethyl)-5,6-dihydro-4H-1,3-oxazin-4-yl)-4-fluorophenyl)-5-cyanopicolinamide]"
15,1380,"C[C@@]1(c2cc(-c3cccnc3F)cs2)C[C@@H](C(F)(F)F)OC(N)=N1 [Example 27, (4S,6S)-4-(4-(2-Fluoropyridin-3-yl)thiophen-2-yl)-4-methyl-6-(trifluoromethyl)-5,6-dihydro-4H-1,3-oxazin-2-amine Hydrochloride]"
16,400,"N#Cc1ccc(C#Cc2ccc(F)c([C@]3(CF)C[C@@H](C(F)(F)F)OC(N)=N3)c2)nc1 [Example 62, 6-((3-((4S,6S)-2-Amino-4-(fluoromethyl)-6-(trifluoromethyl)-5,6-dihydro-4H-1,3-oxazin-4-yl)-4-fluorophenyl)ethynyl)nicotinonitrile]"
17,2,"C[C@]1(c2cc(NC(=O)c3ccc(C#N)cn3)ccc2F)N=C(N)O[C@H](C(F)(F)F)[C@@H]1OCC(F)(F)F [Example 8, N-(3-((4R,5R,6S)-2-Amino-4-methyl-5-(2,2,2-trifluoroethoxy)-6-(trifluoromethyl)-5,6-dihydro-4H-1,3-oxazin-4-yl)-4-fluorophenyl)-5-cyanopicolinamide]"
18,13,"C[C@@]1(c2c(F)ccc(NC(=O)c3ccc(C#N)cn3)c2F)C[C@@H](C(F)(F)F)OC(N)=N1 [Example 38, N-(3-((4S,6S)-2-amino-4-methyl-6-(trifluoromethyl)-5,6-dihydro-4H-1,3-oxazin-4-yl)-2,4-difluorophenyl)-5-cyanopicolinamide]"
19,470,"C[C@@]1(c2cc(C#Cc3cccnc3)ccc2F)C[C@@H](C(F)(F)F)OC(N)=N1 [Example 22, (4S,6S)-4-(2-Fluoro-5-(pyridin-3-ylethynyl)phenyl)-4-methyl-6-(trifluoromethyl)-5,6-dihydro-4H-1,3-oxazin-2-amine]"
20,420,"C[C@@]1(c2cc(-c3cncnc3)ccc2F)C[C@@H](C(F)(F)F)OC(N)=N1 [Example 11, (4S,6S)-4-(2-fluoro-5-(pyrimidin-5-yl)phenyl)-4-methyl-6-(trifluoromethyl)-5,6-dihydro-4H-1,3-oxazin-2-amine]"
21,14,"C[C@]1(c2cc(NC(=O)c3ccc(Cl)cn3)ccc2F)N=C(N)O[C@H](C(F)(F)F)[C@@H]1F [Example 4, N-(3-((4R,5R,6S)-2-Amino-5-fluoro-4-methyl-6-(trifluoromethyl)-5,6-dihydro-4H-1,3-oxazin-4-yl)-4-fluorophenyl)-5-chloropicolinamide]"
22,12,"COc1cnc(C(=O)Nc2ccc(F)c([C@@]3(C)N=C(N)O[C@H](C(F)(F)F)[C@@H]3F)c2)cn1 [Example 5, N-(3-((4R,5R,6S)-2-Amino-5-fluoro-4-methyl-6-(trifluoromethyl)-5,6-dihydro-4H-1,3-oxazin-4-yl)-4-fluorophenyl)-5-methoxypyrazine-2-carboxamide]"
23,1430,"C[C@@]1(c2cc(C#Cc3ccc(Cl)cc3)ccc2F)C[C@@H](C(F)(F)F)OC(N)=N1 [Example 75, (4S,6S)-4-(5-((4-Chlorophenyl)ethynyl)-2-fluorophenyl)-4-methyl-6-(trifluoromethyl)-5,6-dihydro-4H-1,3-oxazin-2-amine]"
24,1670,"COc1cnc(C#Cc2ccc(F)c([C@]3(C)C[C@@H](C(F)(F)F)OC(N)=N3)c2)nc1 [Example 24, (4S,6S)-4-(2-Fluoro-5-((5-methoxypyrimidin-2-yl)ethynyl)phenyl)-4-methyl-6-(trifluoromethyl)-5,6-dihydro-4H-1,3-oxazin-2-amine]"
25,59,"C[C@@]1(c2cc(C#Cc3ccc(C#N)cn3)ccc2F)C[C@@H](C(F)(F)F)OC(N)=N1 [Example 21, 6-((3-((4S,6S)-2-Amino-4-methyl-6-(trifluoromethyl)-5,6-dihydro-4H-1,3-oxazin-4-yl)-4-fluorophenyl)ethynyl)nicotinonitrile]"
26,250,"CC#Cc1cncc(-c2ccc(F)c([C@]3(C)C[C@@H](C(F)(F)F)OC(N)=N3)c2)c1 [Example 14, (4S,6S)-4-(2-Fluoro-5-(5-(prop-1-ynyl)pyridin-3-yl)phenyl)-4-methyl-6-(trifluoromethyl)-5,6-dihydro-4H-1,3-oxazin-2-amine]"
27,520,"COc1cc(C#N)cnc1C#Cc1ccc(F)c([C@]2(CF)C[C@@H](C(F)(F)F)OC(N)=N2)c1 [Example 57, 6-((3-((4S,6S)-2-Amino-4-(fluoromethyl)-6-(trifluoromethyl)-5,6-dihydro-4H-1,3-oxazin-4-yl)-4-fluorophenyl)ethynyl)-5-methoxynicotinonitrile]"
